This note sets out measurements from ChEMBL document CHEMBL3091369, “Synthesis and structure-activity relationships of new carbonyl guanidine derivatives as novel dual 5-HT2B and 5-HT7 receptor antagonists” (Bioorg Med Chem, 2013).

For data set [1], the target named is T1, 5-hydroxytryptamine receptor 2B (Homo sapiens, UniProt P41595). The data set is described as follows: Displacement of [3H]Mesulergine from human 5-HT2B receptor expressed in HEK293 cells by liquid scintillation counting analysis. It counts as cell-based. On the technique in general: Displacement assays read how much labelled ligand stays bound in the presence of the test substance.
T1 sequence (P41595 whole entry): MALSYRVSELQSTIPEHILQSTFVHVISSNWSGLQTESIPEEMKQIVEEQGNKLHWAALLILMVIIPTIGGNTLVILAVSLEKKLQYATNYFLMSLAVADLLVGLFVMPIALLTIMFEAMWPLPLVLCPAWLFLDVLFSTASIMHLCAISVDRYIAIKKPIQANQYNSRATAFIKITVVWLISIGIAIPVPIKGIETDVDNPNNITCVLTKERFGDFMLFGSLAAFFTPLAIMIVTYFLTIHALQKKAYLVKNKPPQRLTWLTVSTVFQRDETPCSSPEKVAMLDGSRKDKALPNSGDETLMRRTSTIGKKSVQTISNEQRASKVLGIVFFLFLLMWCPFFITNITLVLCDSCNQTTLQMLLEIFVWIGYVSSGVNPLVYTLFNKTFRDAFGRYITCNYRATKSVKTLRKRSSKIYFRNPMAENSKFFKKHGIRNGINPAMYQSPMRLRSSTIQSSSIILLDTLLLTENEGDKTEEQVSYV

The target in data set [2] is T2, 5-hydroxytryptamine receptor 7 (Homo sapiens, UniProt P34969). The data set is described as follows: Displacement of [3H]5-HT from human 5-HT7 receptor expressed in CHO cells by liquid scintillation counting analysis. It counts as cell-based.
T2 sequence (P34969 whole entry): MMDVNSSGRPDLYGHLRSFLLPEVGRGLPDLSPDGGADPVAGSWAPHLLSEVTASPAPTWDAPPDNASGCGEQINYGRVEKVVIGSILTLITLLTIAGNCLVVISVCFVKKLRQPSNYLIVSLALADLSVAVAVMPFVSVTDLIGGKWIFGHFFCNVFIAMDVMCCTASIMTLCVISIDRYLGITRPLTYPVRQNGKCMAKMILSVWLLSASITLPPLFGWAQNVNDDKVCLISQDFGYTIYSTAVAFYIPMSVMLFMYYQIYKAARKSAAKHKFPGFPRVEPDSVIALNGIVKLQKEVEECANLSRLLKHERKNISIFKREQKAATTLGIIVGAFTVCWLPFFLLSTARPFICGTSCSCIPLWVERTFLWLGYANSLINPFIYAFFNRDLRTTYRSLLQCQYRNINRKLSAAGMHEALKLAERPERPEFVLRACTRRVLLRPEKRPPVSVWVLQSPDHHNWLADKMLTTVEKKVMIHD
The target of data set [3] is T2, 5-hydroxytryptamine receptor 7. The data set is described as follows: Antagonist activity at human 5-HT7 receptor expressed in CHO cells assessed as inhibition of agonist-induced cAMP production at 10 uM incubated for 20 mins prior to substrate addition measured after 10 mins by EIA relative to control. It counts as functional, cell-based. For orientation: Cyclic AMP is a second messenger, typically raised through Gs and lowered through Gi signalling.

Data set [4] concerns the target T3, Muscarinic acetylcholine receptor M1 (Homo sapiens, UniProt P11229).
T3 sequence (P11229 whole entry): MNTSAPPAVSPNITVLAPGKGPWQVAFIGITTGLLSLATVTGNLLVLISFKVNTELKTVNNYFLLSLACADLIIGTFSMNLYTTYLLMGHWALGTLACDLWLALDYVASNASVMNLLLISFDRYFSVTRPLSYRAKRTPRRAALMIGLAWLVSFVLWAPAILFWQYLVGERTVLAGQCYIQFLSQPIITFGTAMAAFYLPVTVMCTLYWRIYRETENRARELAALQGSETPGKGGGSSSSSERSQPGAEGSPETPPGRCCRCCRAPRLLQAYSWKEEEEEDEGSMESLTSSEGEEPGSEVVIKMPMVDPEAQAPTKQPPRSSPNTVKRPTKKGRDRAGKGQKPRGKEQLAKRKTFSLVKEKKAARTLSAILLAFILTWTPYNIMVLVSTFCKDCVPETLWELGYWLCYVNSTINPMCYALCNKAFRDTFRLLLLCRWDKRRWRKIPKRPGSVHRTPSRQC
The data set can be described thus: Binding affinity to muscarinic M1 receptor (unknown origin).

The test system of data set [5] is Cavia porcellus. The data set can be described thus: Suppression of 5-HT induced dural FITC-labeled BSA extravasation in po dosed Hartley guinea pig pretreated for 30 mins followed by FITC-labeled BSA administration measured after 16 hrs by fluorescence assay. It counts as functional, organism-based.
In the next data set the target is D(2) dopamine receptor (Homo sapiens, UniProt P14416). The data set is described as follows: Binding affinity to dopamine D2 receptor (unknown origin).
Chain of D(2) dopamine receptor (P14416 whole entry): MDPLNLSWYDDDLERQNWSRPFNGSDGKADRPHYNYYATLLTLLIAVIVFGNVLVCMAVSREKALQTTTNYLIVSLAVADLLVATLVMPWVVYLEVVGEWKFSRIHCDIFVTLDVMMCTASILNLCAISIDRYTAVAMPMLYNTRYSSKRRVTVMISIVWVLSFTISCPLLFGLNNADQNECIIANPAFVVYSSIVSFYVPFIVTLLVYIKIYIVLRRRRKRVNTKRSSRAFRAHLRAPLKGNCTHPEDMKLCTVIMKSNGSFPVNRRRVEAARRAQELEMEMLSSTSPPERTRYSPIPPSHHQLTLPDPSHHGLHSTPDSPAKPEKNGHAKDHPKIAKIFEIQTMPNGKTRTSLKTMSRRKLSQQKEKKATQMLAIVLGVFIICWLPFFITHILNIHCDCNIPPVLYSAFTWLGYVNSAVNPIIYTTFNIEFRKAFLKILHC
In data set [6] the test system is Cavia porcellus. The data set is described as follows: Suppression of 5-HT induced dural FITC-labeled BSA extravasation in ip dosed Hartley guinea pig pretreated for 30 mins followed by FITC-labeled BSA administration measured after 16 hrs by fluorescence assay. It is filed as functional, organism-based.
The target of data set [7] is T4, 5-hydroxytryptamine receptor 2C (Homo sapiens, UniProt P28335).
T4 sequence (P28335 whole entry): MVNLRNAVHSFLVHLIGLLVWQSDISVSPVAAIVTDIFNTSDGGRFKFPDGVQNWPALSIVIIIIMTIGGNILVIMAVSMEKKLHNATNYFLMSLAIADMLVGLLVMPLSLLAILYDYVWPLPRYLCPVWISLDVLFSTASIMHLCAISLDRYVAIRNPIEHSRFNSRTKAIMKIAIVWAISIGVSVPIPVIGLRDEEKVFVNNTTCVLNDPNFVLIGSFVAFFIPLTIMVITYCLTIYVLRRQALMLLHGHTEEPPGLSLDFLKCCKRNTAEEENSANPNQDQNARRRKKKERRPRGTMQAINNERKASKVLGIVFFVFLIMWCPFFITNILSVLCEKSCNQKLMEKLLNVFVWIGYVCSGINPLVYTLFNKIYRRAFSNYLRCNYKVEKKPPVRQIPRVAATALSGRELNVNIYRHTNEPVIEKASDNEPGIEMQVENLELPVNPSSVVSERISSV
The data set is described as follows: Binding affinity to 5-HT2C receptor (unknown origin).

The target of data set [8] is T1, 5-hydroxytryptamine receptor 2B. The data set can be described thus: Antagonist activity at human 5-HT2B receptor expressed in HEK293 cells coexpressing EBNA assessed as inhibition of 5-HT-induced IP metabolism incubated for 20 mins prior to substrate addition measured after 20 mins by liquid scintillation counting analysis. It counts as cell-based.
For data set [9], the target named is T5, Adrenergic receptor alpha-1 (Homo sapiens, UniProt P35348+P25100+P35368).
T5 sequence (P35348 whole entry): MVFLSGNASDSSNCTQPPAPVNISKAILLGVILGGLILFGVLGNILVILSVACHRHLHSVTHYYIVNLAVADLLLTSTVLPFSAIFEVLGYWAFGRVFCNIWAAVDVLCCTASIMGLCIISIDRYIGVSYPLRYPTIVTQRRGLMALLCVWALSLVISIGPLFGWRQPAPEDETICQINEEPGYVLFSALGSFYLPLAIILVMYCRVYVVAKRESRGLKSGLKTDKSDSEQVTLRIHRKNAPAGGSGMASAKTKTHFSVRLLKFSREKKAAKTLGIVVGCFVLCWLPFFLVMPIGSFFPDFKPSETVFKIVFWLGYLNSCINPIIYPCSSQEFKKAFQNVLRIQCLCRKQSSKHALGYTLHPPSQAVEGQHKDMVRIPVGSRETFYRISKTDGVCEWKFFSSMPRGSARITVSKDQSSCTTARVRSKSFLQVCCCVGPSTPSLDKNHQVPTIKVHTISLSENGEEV
T5 sequence (P25100 whole entry): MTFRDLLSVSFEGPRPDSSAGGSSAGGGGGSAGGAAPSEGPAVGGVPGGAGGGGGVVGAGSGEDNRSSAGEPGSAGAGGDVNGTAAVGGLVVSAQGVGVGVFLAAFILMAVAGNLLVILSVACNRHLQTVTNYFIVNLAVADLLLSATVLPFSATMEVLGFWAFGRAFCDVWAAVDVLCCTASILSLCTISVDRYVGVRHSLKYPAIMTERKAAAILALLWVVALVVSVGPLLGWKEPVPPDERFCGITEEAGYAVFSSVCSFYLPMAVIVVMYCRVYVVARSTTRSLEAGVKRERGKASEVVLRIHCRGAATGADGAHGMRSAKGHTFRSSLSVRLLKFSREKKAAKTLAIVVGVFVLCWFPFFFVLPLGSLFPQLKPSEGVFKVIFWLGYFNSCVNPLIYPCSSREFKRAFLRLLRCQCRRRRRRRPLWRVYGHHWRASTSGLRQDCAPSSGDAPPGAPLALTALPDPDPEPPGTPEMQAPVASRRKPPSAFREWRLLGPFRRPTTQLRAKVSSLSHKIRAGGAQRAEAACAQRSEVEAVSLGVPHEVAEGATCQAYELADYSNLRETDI
T5 sequence (P35368 whole entry): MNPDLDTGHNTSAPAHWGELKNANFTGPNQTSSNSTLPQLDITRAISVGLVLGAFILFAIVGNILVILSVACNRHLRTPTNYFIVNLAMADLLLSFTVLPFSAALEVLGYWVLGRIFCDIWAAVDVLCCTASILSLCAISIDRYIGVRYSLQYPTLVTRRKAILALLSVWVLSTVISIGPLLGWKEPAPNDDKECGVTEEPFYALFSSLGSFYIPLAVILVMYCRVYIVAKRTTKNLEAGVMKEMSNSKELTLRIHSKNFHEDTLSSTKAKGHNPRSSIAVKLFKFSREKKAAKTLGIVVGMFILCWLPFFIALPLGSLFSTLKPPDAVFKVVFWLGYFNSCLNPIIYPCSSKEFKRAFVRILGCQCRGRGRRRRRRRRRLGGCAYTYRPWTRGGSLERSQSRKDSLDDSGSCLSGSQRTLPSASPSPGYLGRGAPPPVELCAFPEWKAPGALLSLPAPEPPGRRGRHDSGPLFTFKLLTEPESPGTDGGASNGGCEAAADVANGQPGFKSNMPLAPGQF
The data set can be described thus: Binding affinity to adrenergic alpha1 receptor (unknown origin).

The target of data set [10] is 5-hydroxytryptamine receptor 2A (Homo sapiens, UniProt P28223). The data set can be described thus: Binding affinity to 5-HT2A receptor (unknown origin).
Chain of 5-hydroxytryptamine receptor 2A (P28223 whole entry): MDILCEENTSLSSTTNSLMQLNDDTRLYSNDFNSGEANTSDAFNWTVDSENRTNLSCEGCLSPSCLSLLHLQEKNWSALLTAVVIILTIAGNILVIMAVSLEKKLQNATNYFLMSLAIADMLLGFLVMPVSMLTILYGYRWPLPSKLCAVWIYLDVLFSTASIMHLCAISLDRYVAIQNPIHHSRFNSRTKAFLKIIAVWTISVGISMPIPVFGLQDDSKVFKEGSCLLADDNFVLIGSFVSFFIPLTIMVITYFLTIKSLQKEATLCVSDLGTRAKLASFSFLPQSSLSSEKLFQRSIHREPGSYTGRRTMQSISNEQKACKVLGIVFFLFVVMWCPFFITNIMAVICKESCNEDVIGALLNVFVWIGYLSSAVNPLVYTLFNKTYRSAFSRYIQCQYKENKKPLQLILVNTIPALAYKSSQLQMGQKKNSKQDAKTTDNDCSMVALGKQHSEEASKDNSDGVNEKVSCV
Data set [11] can be described thus: Aqueous solubility of the compound in second liquid of Japanese pharmacopoeia at pH 6.8 after 20 hrs by liquid chromatographic analysis. It counts as physicochemical.
The subject of data set [12] is Cavia porcellus. The data set can be described thus: Suppression of 5-HT induced dural FITC-labeled BSA extravasation in Hartley guinea pig at 3 mg/kg, ip pretreated for 30 mins followed by FITC-labeled BSA administration measured after 16 hrs by fluorescence assay relative to control. As to conditions: route intraperitoneal. It counts as functional.

On to `NC(N)=NC(=O)/C=C/c1ccc2c(c1)C(O)c1ccccc1-2` (configuration not stated), for which the Ki is 52 nM in data set [1] and over 100 nM in data set [2].
As to `Cl.NC(N)=NC(=O)c1ccc2c(c1)C(O)c1ccccc1-2` (configuration not stated), the Imax in [3] worked out at 97%. The Ki (in data set [4]; on D(2) dopamine receptor; in data set [7]; in data set [9]; in data set [10]) was over 1000 nM each time. Besides, the Activity entry with Cavia porcellus [5] is “Dose-dependent effect”; in the data set with Cavia porcellus [6], “Dose-dependent effect”; in the data set with Cavia porcellus [12], 93%. The IC50 in data set [8] stood at 19.6 nM. Besides, the solubility at 20 h in data set [11] was under 10 µg/mL.
For the compound `NC(N)=NC(=O)c1ccc2c(c1)oc1ccccc12`, the Ki is 2.1 nM in [1] and over 100 nM in data set [2].
As to `NC(N)=NC(=O)c1ccc2c(c1)Cc1ccccc1-2`, the Imax in data set [3] turned out to be 98%. Also, the Ki is over 1000 nM in data set [4]; 1400 nM at D(2) dopamine receptor; 1.8 nM in data set [1]; 200 nM in data set [7]; 12.4 nM in data set [2]; 790 nM in [9]. This compound had a Ki in [10] of 1000 nM. In data set [8], the half-inhibitory concentration (IC50) was determined as 36.4 nM. The compound further came in with a solubility at 20 h in data set [11] of under 1 µg/mL.
`NC(N)=NC(=O)c1cccc2c1-c1ccccc1C2`: the values for the Ki in [1] and in data set [2] were 27.4 nM and over 1000 nM, respectively.
In the case of `CC(C)c1cc(-c2ccc(F)c3ccccc23)nc(N)n1`, the Activity in the data set with Cavia porcellus [12] is 60%.
As to `NC(N)=NC(=O)c1ccc2c(c1)-c1ccccc1C2O` (configuration not stated), the inhibitory constant (Ki) was 86.8 nM in data set [1] and over 1000 nM in data set [2].
For `NC(N)=NC(=O)c1cccc2c1Cc1ccccc1-2`, the Ki in [1] came out at 1.1 nM; in [2], 239 nM.
In the case of `NC(N)=NC(=O)c1ccc2c(c1)[nH]c1ccccc12`, the Ki in [1] came out at 10 nM; in data set [2], 42 nM.
Take `NC(N)=NC(=O)c1ccc2c(c1)C(=O)c1ccccc1-2`: the inhibition constant (Ki) amounted to 0.4 nM in [1] and 185 nM in [2].
For the compound `NC(N)=NC(=O)c1ccc2c(c1)Oc1ccccc1N2`, the Ki in [1] is 2.4 nM; in data set [2], over 1000 nM.
For the compound `NC(N)=NC(=O)c1ccc2c(c1)Nc1ccccc1O2`, the Ki is 3.6 nM in [1] and 144 nM in [2].
In the case of `CN1CCC(=C2c3ccccc3CCc3sccc32)CC1` [PIZOTYLINE], the Ki is 2 nM in [4]; 2.4 nM on D(2) dopamine receptor; 2 nM in [1]; 1.4 nM in data set [7]; 25 nM in [2]; 75 nM in [9]. The Ki in data set [10] was 7.5 nM.

As a reminder, the Ki is a dissociation constant, usually derived from enzyme kinetics or from competition with a known ligand. A high value points to weaker binding. One may read the IC50 as the concentration needed to halve the response being measured. One may read the solubility as the concentration that dissolves in the medium under given conditions. The low end stands for little dissolved substance, the high end for much dissolved substance.
